Data from patent publication US20160022708A1, “METHODS AND COMPOSITIONS FOR THE TREATMENT OF GLUTAMINE-ADDICTED CANCERS” (ST. JUDE CHILDREN'S RESEARCH HOSPITAL, priority 2013, published 2016).
Structures can show the parent of a compound that is named as a salt. Where two headings read alike, the source gives them in different places.

Assays:
[1] = system: neuroblastoma and Ewing's sarcoma cell lines; assay: CyQuant viability assay, panel of NB and Ewing's sarcoma cell lines; format: cell-based; conditions: for single agent effect: more glutamine-addicted cell lines such as IMR32, Kelly, RD-ES and SK-ES-1; for effectiveness on cancer cell lines: broad ranges of drug concentrations; for efficacy as single agent in vitro: single agents
Procedure: To survey the effects of DON on neuroblastomas and Ewing's sarcomas, DON was tested on six neuroblastoma (SK-N-AS, SK-N-BE(2), SK-N-FI, IMR32, Kelly, and SH-SySy) and three Ewing's sarcoma cell lines (SK-N-MC, RD-ES and SK-ES-1) and a control immortalized foreskin fibroblast cell line (BJ). Using the CyQuant viability assay, the respective sensitivities of each cell line to DON were determined after 72 hrs of treatment in a universal media (EMEM, 10% FBS, 0.5 mM glutamine) containing physiological levels of glutamine and glucose. […] More strikingly, all three Ewing's sarcoma cell lines were especially sensitive to DON with an 80% loss in cell viability (FIG. 1B). […]
(§1) 6-diazo-5-oxo-L-norleucine (Sigma Aldrich, St. Louis, Mo.) and epigallocatechin-3-gallate (Sigma Aldrich, St. Louis, Mo.) were solubilized in water, aminooxyacetate (Sigma Aldrich, St. Louis, Mo.), obatoclax mesylate (Selleckchem,), and ABT-263 (Sellekchem) were dissolved in 100% dimethyl sulfoxide (DMSO). In a 96-well tissue culture plate, 5×10^4 cells were plated in 100 ul of media containing EMEM, 10% FBS and 0.5 mM glutamine per well. Four hours after plating drugs were diluted to a 2× concentration in plating media and added to wells. Plates were incubated for 72-hrs and then submitted to CyQuant Cell Direct Proliferation Assay (Life Technologies) according to manufacturer's instructions and read with a Synergy HT Multi-mode microplate reader (Biotek).

[2] = system: SK-N-BE(2) cells; assay: Annexin / propidium iodide staining (FACS); format: cell-based; conditions: 100 μM DON 72 hrs
Procedure: (§2) To investigate the effects of DON on proliferation and cell death in vivo, additional NB tumor studies using SK-N-AS and SK-N-BE(2) cells were set up. Tumors in each cohort were allowed to grow to ˜1000 mm^3 before they underwent one round of DON treatment at 100 mg/kg of DON twice a week. On day 4, the second dose of DON was given 6-hrs prior and BrdU injected 2 hours prior to harvesting the tumors for histology (FIG. 3A).
(§3) To measure early apoptosis, cells were plated in EMEM media containing 0.5 mM L-glutamine, 10% FBS, and 1% Penicillin/Streptomycin, then treated+/−100 μM DON for 72 hours. Both adherent and floating cells in the media were collected at harvest, and 3×10^5 cells were then stained with Annexin-V-FITC antibody for 15 minutes at room temperature. Cells were then counterstained with propidium iodide (9.1 μM final concentration) and filtered through a 40 μm nylon mesh. Immediately after staining, samples were analyzed by the Flow Cytometry and Cell Sorting Shared Resource facility at St. Jude Children's Research Hospital.

[3] = system: SK-N-AS cells; assay: Annexin / propidium iodide staining (FACS); format: cell-based; conditions: 100 μM DON 72 hrs
Procedure: as §2, §3

[4] = system: SK-N-BE(2) cells; assay: Cell cycle analysis by BrdU labeling (FACS); format: cell-based; conditions: 100 μM DON 72 hrs
Procedure: as §2
(§4) In vitro cell cultures were pulse-labeled with 10 μM BrdU (BD Biosciences) for 90 minutes at 37° C., and then fixed and stained with Anti-BrdU-FITC antibody and 7-AAD (BD Biosciences, #559619), according to manufacturer's protocol. Stained samples were then analyzed by the Flow Cytometry and Cell Sorting Shared Resource facility at St. Jude Children's Research Hospital.

[5] = system: SK-N-AS cells; assay: Cell cycle analysis by BrdU labeling (FACS); format: cell-based; conditions: 100 μM DON 72 hrs
Procedure: as §2, §4

[6] = system: BJ foreskin fibroblasts; assay: CyQuant viability assay, control cell line; format: cell-based
Procedure: (§5) To survey the effects of DON on neuroblastomas and Ewing's sarcomas, DON was tested on six neuroblastoma (SK-N-AS, SK-N-BE(2), SK-N-FI, IMR32, Kelly, and SH-SySy) and three Ewing's sarcoma cell lines (SK-N-MC, RD-ES and SK-ES-1) and a control immortalized foreskin fibroblast cell line (BJ). Using the CyQuant viability assay, the respective sensitivities of each cell line to DON were determined after 72 hrs of treatment in a universal media (EMEM, 10% FBS, 0.5 mM glutamine) containing physiological levels of glutamine and glucose. […] More strikingly, all three Ewing's sarcoma cell lines were especially sensitive to DON with an 80% loss in cell viability (FIG. 1B).
as §1

[7] = system: SK-N-FI cells; assay: CyQuant viability assay; format: cell-based; conditions: DON 72 hrs; EMEM, 10% FBS, 0.5 mM glutamine
Procedure: as §5
as §1, with “Four hours after plating drugs were diluted to a 2× concentration in plating media and added to wells.” left out

[8] = system: SK-ES-1 tumors; assay: Subcutaneous tumor growth; format: in vivo, mice; conditions: 100 mg/kg twice a week I.P.
Procedure: (§6) DON's effects on NB and EWS tumors in vivo were assessed. Subcutaneous tumors for the neuroblastoma cell lines SK-N-AS and SK-N-BE(2) as well as the Ewing's Sarcoma cell lines SK-N-MC and SK-ES-1 were grown to at least 200 mm^3 and were then randomized into either DON or control treatment groups. Mice were then treated with 100 mg/kg of DON or water control twice a week by intraperitoneal (I.P.) injection, equivalent to a twice a week dose of 300 mg/m^2 in children. Previous work has shown that a dose as high as 520 mg/m^2 was safely achievable in children. […] To attempt to extend the course of treatment, mice either were treated with half the dose at 50 mg/kg twice a week or with a once weekly injection of 100 mg/kg (1×/wk). The effectiveness of the original drug regimen was compared to the two new treatment schedules using mice with subcutaneous tumors from the most DON-resistant (SK-N-FI) and the most DON-sensitive (SK-N-MC) cell line in vitro. This experiment would allow for the determination whether the in vitro data was predictive of differences in response to DON in vivo. Both of the new drug regimens allowed a significant extension in length of treatment from 11 days to greater than 24 days. However, only the 50 mg/kg dose was effective against both tumor types. […] In addition, the SK-N-BE2 and IMR32 neuroblastoma cell lines were tested at the 50 mg/kg dose in mice with subcutaneous tumors. The 50 mg/kg dose was effective against both tumor types (FIG. 7 A-C).
(§7) For subcutaneous tumor experiments, cells were injected into the hind flank of either 6-8 week old athymic (nu/nu) mice (Charles River) or into Rag2^−/−; gamma c^−/− mice (kindly provided by Dr. Shannon McKinney-Freeman). No difference in tumor growth kinetics was observed between different strains. SK-N-AS, SK-N-MC, and SK-ES-1 cells were injected at 2×10^6 cells per mouse in 100 μl total volume. SK-N-BE(2) cells were injected in a 1:1 mix of cells and Matrigel (BD Biosciences) at a final concentration of 2×10^6 cells per mouse. Tumor size was measured by digital caliper, and tumor volume was calculated using the formula 1/2*(length*width^2). When tumors reached an average size of 200 mm^3 mice were randomized into treatment groups. On the day of treatment, mice were weighed then given an intraperitoneal (i.p.) injection of either 100 mg/kg DON, 50 mg/kg or water control. All animal experiments were performed in accordance with the guidelines established by IACUC.

[9] = system: SK-N-AS tumors; assay: Subcutaneous tumor growth; format: in vivo, mice; conditions: 100 mg/kg twice a week I.P.
Procedure: as §6, §7

[10] = system: SK-N-MC tumors; assay: Subcutaneous tumor growth; format: in vivo, mice
Procedure: as §6, §7

[11] = system: SK-N-FI tumors; assay: Subcutaneous tumor growth; format: in vivo, mice; conditions: 50 mg/kg twice a week I.P.
Procedure: as §6, §7

[12] = system: SK-N-BE(2) tumors; assay: Subcutaneous tumor growth; format: in vivo, mice
Procedure: as §6, §7

[13] = system: IMR32 tumors; assay: Subcutaneous tumor growth; format: in vivo, mice; conditions: 50 mg/kg twice weekly I.P.
Procedure: as §6, §7

[14] = system: Ewing's sarcoma cell lines (SK-N-MC, RD-ES and SK-ES-1); assay: CyQuant viability assay, Ewing's sarcoma cell lines; format: cell-based; conditions: all three Ewing's sarcoma cell lines; DON 72 hrs
Procedure: as §5
as §1, with “Four hours after plating drugs were diluted to a 2× concentration in plating media and added to wells.” left out

[15] = system: SK-N-AS tumors; assay: IHC of BrdU and cleaved caspase-3 in tumors; format: in vivo, mice; conditions: ~1000 mm^3 tumors, 100 mg/kg DON day 1 and day 4
Procedure: as §2
(§8) For in vivo labeling of proliferating cells, mice with subcutaneous SK-N-AS or SK-N-BE(2) tumors (1000 mm^3) were treated with DON and injected with BrdU (BD Biosciences). Mice were given an intraperitoneal (i.p.) injection of 100 mg/kg DON on day 1 and again on day 4. Four hours after the second dose of DON, mice were injected i.p. with 150 μl of 10 mg/ml BrdU. Tumor tissue was harvested 2 hours after addition of BrdU and samples were fixed in 10% formalin. Paraffin-embedded tissue sections were then stained for BrdU incorporation by the St. Jude Veterinary Pathology Core.

[16] = system: SK-N-BE(2) tumors; assay: IHC of BrdU and cleaved caspase-3 in tumors; format: in vivo, mice; conditions: ~1000 mm^3 tumors, 100 mg/kg DON day 1 and day 4
Procedure: as §2, §8

[17] = Tolerability in tumor-bearing mice (weight loss, length of treatment); format: in vivo
Procedure: as §6
For subcutaneous tumor experiments, cells were injected into the hind flank of either 6-8 week old athymic (nu/nu) mice (Charles River) or into Rag2^−/−; gamma c^−/− mice (kindly provided by Dr. Shannon McKinney-Freeman). No difference in tumor growth kinetics was observed between different strains. SK-N-AS, SK-N-MC, and SK-ES-1 cells were injected at 2×10^6 cells per mouse in 100 μl total volume. […] Tumor size was measured by digital caliper, and tumor volume was calculated using the formula 1/2*(length*width^2). […]

[18] = children, previous work; cited from earlier work
[19] = in vivo; cited from earlier work
[20] = cited from earlier work

## NOCC(=O)O [AOA, aminooxyacetate]
[1]
  single agent effect: effective as single agents

## [N-]=[N+]=CC(=O)CC[C@H](N)C(=O)O [DON, 6-diazo-5-oxo-L-norleucine]
[2]
  cell death: increase in cell death
[3]
  cell death: increase in cell death
[4]
  entry into the S-phase of the cell cycle: reduced entry into the S-phase
[5]
  entry into the S-phase of the cell cycle: reduced entry into the S-phase
[6]; broad ranges of drug concentrations
  toxicity to BJ cells: non-toxic
[7]
  reduction in cell numbers: 20%
[1]; all cell lines except control BJ, 72 hrs
  sensitivity to DON: some sensitivity
[1]
  effectiveness on cancer cell lines: effective on all the cancer cell lines tested
  efficacy as single agent in vitro: some efficacy
[1]; multiple cell lines, DON 72 hrs, 0.5 mM glutamine
  loss in cell numbers: greater than 60%
[8]
  tumor growth: dramatically blocked growth
[9]
  tumor growth: greatly reduced growth
[10]; 50 mg/kg twice a week I.P.
  tumor growth: effective
[10]; 100 mg/kg twice a week I.P.
  tumor growth: dramatically blocked growth
[11]
  tumor growth: effective
[12]; 50 mg/kg twice weekly I.P.
  tumor growth: effective
[12]; 100 mg/kg twice a week I.P.
  tumor growth: greatly reduced growth
[13]
  tumor growth: effective
[14]
  loss in cell viability: 80%
[15]
  caspase-3 cleavage: no difference
  reduction in BrdU incorporation: > 90%
[16]
  increase in caspase-3 cleavage: greater than 2 fold
  reduction in BrdU incorporation: > 90%
[17]; 50 mg/kg twice a week or 100 mg/kg once weekly
  length of treatment: greater than 24 days
[17]; 100 mg/kg twice a week I.P.
  weight loss in the mice: caused weight loss
[17]; original regimen 100 mg/kg twice a week
  length of treatment: 11 days
[18]
  dose safely achievable: ≤ 520 mg/m^2

## COC1=CC(c2cc3ccccc3[nH]2)=N/C1=C\c1[nH]c(C)cc1C [obatoclax mesylate]
[1]
  efficacy as single agent in vitro: some efficacy

## CC1=C(/C=C/C(C)=C/C=C/C(C)=C/C(=O)Nc2ccc(O)cc2)C(C)(C)CCC1 [fenretinide, N-(4-hydroxyphenyl)retinamide]
[6]
  toxicity to BJ cells: non-toxic
[1]
  effectiveness on cancer cell lines: effective on all the cancer cell lines tested
[19]
  bioavailability: poor bioavailability

## epigallocatechin-3-gallate [EGCG]
[1]
  single agent effect: effective as single agents

## CC1(C)CCC(c2ccc(Cl)cc2)=C(CN2CCN(c3ccc(C(=O)NS(=O)(=O)c4ccc(N[C@H](CCN5CCOCC5)CSc5ccccc5)c(S(=O)(=O)C(F)(F)F)c4)cc3)CC2)C1 [ABT-263, navitoclax]
[20]; in vivo, po
  oral bioavailability: orally bioavailable
[20]; in vivo
  major adverse side effect: thrombocytopenia
  safety and tolerability: safe and well-tolerated
[20]; phase I and phase II clinical trials in adults
  tolerability: well tolerated
[6]
  toxicity to BJ cells: non-toxic
[1]
  effectiveness on cancer cell lines: effective on all the cancer cell lines tested
  efficacy as single agent in vitro: some efficacy
